IC50 data for 41 compounds are collected here from patent US20240299385A1 (ReWind Therapeutics NV, priority 2021, published 2024).

SMILES strings stand for the structures. Bounds are passed on as bounds.

For this assay, the target named is T1, human GPR17 receptor (Homo sapiens, UniProt Q13304).
T1 construct: host or cells: HEK-293
T1 sequence (Q13304 whole entry): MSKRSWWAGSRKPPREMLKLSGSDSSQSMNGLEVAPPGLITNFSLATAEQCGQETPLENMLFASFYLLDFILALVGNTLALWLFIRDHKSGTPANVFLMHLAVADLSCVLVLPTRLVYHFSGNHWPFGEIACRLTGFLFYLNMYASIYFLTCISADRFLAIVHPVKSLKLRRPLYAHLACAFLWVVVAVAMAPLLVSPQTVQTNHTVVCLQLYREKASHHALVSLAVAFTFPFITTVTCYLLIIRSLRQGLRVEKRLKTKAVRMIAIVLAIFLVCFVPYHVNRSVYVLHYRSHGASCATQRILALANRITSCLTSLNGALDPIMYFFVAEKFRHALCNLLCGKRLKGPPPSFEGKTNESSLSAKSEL
As to the kind of experiment: Calcium mobilization functional assay (Fluo-8, FLIPR TETRA) in HEK-293 hGPR17 (Gα-q assay). The assay is classed as cell-based. Conditions: antagonism of MDL29,951 (~EC80) induced Ca2+ signal; cell line (HEK-293 hGPR17 or HEK-293 Suchi5 hGPR17) not given. In short, it runs like this:
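Fluo-8-loaded HEK-293 hGPR17 cells (60 min dye loading, room temperature) were preincubated with compound for twenty minutes, then challenged with agonist MDL29,951 at ~EC80, 500 nM. Intracellular calcium release via Gα-q was recorded as FLIPR fluorescence for a further 2 minutes; compounds tested in duplicate.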
As for `O=S(=O)(Nc1cc(F)c(C(F)(F)F)cc1F)c1c[nH]c(-c2ccc(F)cn2)c1` [Cpd 189, N-[2,5-difluoro-4-(trifluoromethyl)phenyl]-5-(5-fluoro-2-pyridyl)-1H-pyrrole-3-sulfonamide], the IC50 (as a rule, the midpoint of a concentration-inhibition curve) is 0.5 to 5 µM. In the case of `O=S(=O)(Nc1ccc(C(F)(F)F)c(F)c1)c1c[nH]c(-c2ccccn2)c1` [Cpd 190, N-[3-fluoro-4-(trifluoromethyl)phenyl]-5-(2-pyridyl)-1H-pyrrole-3-sulfonamide] it was 0.5 to 5 µM; in that of `COc1ncccc1-c1cc(S(=O)(=O)Nc2cc(F)c(C(F)(F)F)cc2F)c[nH]1` [Cpd 191, N-[2,5-difluoro-4-(trifluoromethyl)phenyl]-5-(2-methoxy-3-pyridyl)-1H-pyrrole-3-sulfonamide], below 0.5 µM.

With `O=S(=O)(Nc1ncc(Cl)cc1F)c1c[nH]cc1Cc1ccccc1` [Cpd 192, 4-benzyl-N-(5-chloro-3-fluoro-2-pyridyl)-1H-pyrrole-3-sulfonamide], the IC50 fell in the range of 5 to 50 µM. In the case of `O=S(=O)(Nc1cc(F)c(Br)cc1F)c1c[nH]cc1Cc1ccccc1` [Cpd 193, 4-benzyl-N-(4-bromo-2,5-difluoro-phenyl)-1H-pyrrole-3-sulfonamide] it was 0.5 to 5 µM; in that of `N#Cc1ccc(NS(=O)(=O)c2c[nH]cc2Cc2ccccc2Cl)c(F)c1` [Cpd 194, 4-[(2-chlorophenyl)methyl]-N-(4-cyano-2-fluoro-phenyl)-1H-pyrrole-3-sulfonamide], 0.5 to 5 µM; in that of `N#Cc1ccc(NS(=O)(=O)c2c[nH]cc2C(=O)c2ccccc2)c(F)c1` [Cpd 195, 4-benzoyl-N-(4-cyano-2-fluoro-phenyl)-1H-pyrrole-3-sulfonamide], 0.5 to 5 µM.

Turning to `COc1ccc(F)c(NS(=O)(=O)c2c[nH]c(-c3ccccn3)c2)c1` [Cpd 196, N-(2-fluoro-5-methoxy-phenyl)-5-(2-pyridyl)-1H-pyrrole-3-sulfonamide], the IC50 was 5 to 50 µM. On to `O=S(=O)(Nc1cc(F)c(C(F)(F)F)cc1F)c1c[nH]c(-c2ccc(Cl)cn2)c1` [Cpd 197, 5-(5-chloro-2-pyridyl)-N-[2,5-difluoro-4-(trifluoromethyl)phenyl]-1H-pyrrole-3-sulfonamide], for which the half-maximal inhibitory concentration (IC50) was 5 to 50 µM. In the case of `COc1cc(C(F)(F)F)cnc1NS(=O)(=O)c1c[nH]c(-c2ccccn2)c1` [Cpd 198, N-[3-methoxy-5-(trifluoromethyl)-2-pyridyl]-5-(2-pyridyl)-1H-pyrrole-3-sulfonamide] it was 0.5 to 5 µM; in that of `O=S(=O)(Nc1cc(C(F)(F)F)ncc1F)c1c[nH]c(-c2ccccc2)c1` [Cpd 199, N-[5-fluoro-2-(trifluoromethyl)-4-pyridyl]-5-phenyl-1H-pyrrole-3-sulfonamide], 5 to 50 µM. The value for `CC(=O)c1ccc(NS(=O)(=O)c2c[nH]c(-c3ccccn3)c2)c(F)c1` [Cpd 200, N-(4-acetyl-2-fluoro-phenyl)-5-(2-pyridyl)-1H-pyrrole-3-sulfonamide] was 5 to 50 µM; that for `N#CCc1cnc(NS(=O)(=O)c2c[nH]c(-c3ccccn3)c2)c(F)c1` [Cpd 201, N-[5-(cyanomethyl)-3-fluoro-2-pyridyl]-5-(2-pyridyl)-1H-pyrrole-3-sulfonamide] was 5 to 50 µM. In the case of `O=S(=O)(Nc1cc(F)c(Cl)cc1F)c1c[nH]c(-c2ccccn2)c1` [Cpd 202, N-(4-chloro-2,5-difluoro-phenyl)-5-(2-pyridyl)-1H-pyrrole-3-sulfonamide] it was below 0.5 µM; in that of `CCOC(=O)c1ccc(NS(=O)(=O)c2c[nH]c(-c3ccccn3)c2)c(F)c1` [Cpd 203], 0.5 to 5 µM. As for `O=S(=O)(Nc1cc(F)c(C(F)(F)F)cc1F)c1c[nH]c(-c2ncccc2Cl)c1` [Cpd 204, 5-(3-chloro-2-pyridyl)-N-[2,5-difluoro-4-(trifluoromethyl)phenyl]-1H-pyrrole-3-sulfonamide], the IC50 was below 0.5 µM. `O=S(=O)(Nc1cc(F)c(OC(F)F)cc1F)c1c[nH]c(-c2ccccn2)c1` [Cpd 205, N-[4-(difluoromethoxy)-2,5-difluoro-phenyl]-5-(2-pyridyl)-1H-pyrrole-3-sulfonamide]: the IC50 is below 0.5 µM. In the case of `N#Cc1ccc(NS(=O)(=O)c2c[nH]cc2Cc2cccc(Cl)c2)c(F)c1` [Cpd 206, 4-[(3-chlorophenyl)methyl]-N-(4-cyano-2-fluoro-phenyl)-1H-pyrrole-3-sulfonamide], the IC50 is below 0.5 µM. The value for `N#Cc1ccc(NS(=O)(=O)c2c[nH]cc2C(O)c2ccccc2)c(F)c1` (centres unmarked) [Cpd 207, N-(4-cyano-2-fluoro-phenyl)-4-[hydroxy(phenyl)methyl]-1H-pyrrole-3-sulfonamide] was 5 to 50 µM; that for `N#Cc1ccc(NS(=O)(=O)c2c[nH]cc2Cc2ccc(Cl)cc2)c(F)c1` [Cpd 208, 4-[(4-chlorophenyl)methyl]-N-(4-cyano-2-fluoro-phenyl)-1H-pyrrole-3-sulfonamide] was 0.5 to 5 µM; that for `COc1ccc(Cc2c[nH]cc2S(=O)(=O)Nc2ccc(C#N)cc2F)cc1` [Cpd 209, N-(4-cyano-2-fluoro-phenyl)-4-[(4-methoxyphenyl)methyl]-1H-pyrrole-3-sulfonamide] was 5 to 50 µM. On to `COc1cccc(Cc2c[nH]cc2S(=O)(=O)Nc2ccc(C#N)cc2F)c1` [Cpd 210, N-(4-cyano-2-fluoro-phenyl)-4-[(3-methoxyphenyl)methyl]-1H-pyrrole-3-sulfonamide], for which the IC50 is below 0.5 µM. In the case of `COc1ccccc1Cc1c[nH]cc1S(=O)(=O)Nc1ccc(C#N)cc1F` [Cpd 211, N-(4-cyano-2-fluoro-phenyl)-4-[(2-methoxyphenyl)methyl]-1H-pyrrole-3-sulfonamide] it was 0.5 to 5 µM; in that of `O=S(=O)(Nc1cc(F)c(C(F)(F)F)cc1F)c1c[nH]c(-c2cc(Cl)ccn2)c1` [Cpd 214, 5-(4-chloro-2-pyridyl)-N-[2,5-difluoro-4-(trifluoromethyl)phenyl]-1H-pyrrole-3-sulfonamide], 0.5 to 5 µM; in that of `O=S(=O)(Nc1cc(F)c(C(F)(F)F)cc1F)c1c[nH]c(-c2cccc(Cl)n2)c1` [Cpd 215, 5-(6-chloro-2-pyridyl)-N-[2,5-difluoro-4-(trifluoromethyl)phenyl]-1H-pyrrole-3-sulfonamide], below 0.5 µM. The value for `C#Cc1cnc(NS(=O)(=O)c2c[nH]c(-c3ccccc3)c2)c(F)c1` [Cpd 216, N-(5-ethynyl-3-fluoro-2-pyridyl)-5-phenyl-1H-pyrrole-3-sulfonamide] was 0.5 to 5 µM. The value for `N#Cc1ccc(NS(=O)(=O)c2c[nH]cc2-c2ccc(F)cc2)c(F)c1` [Cpd 217, N-(4-cyano-2-fluoro-phenyl)-4-(4-fluorophenyl)-1H-pyrrole-3-sulfonamide] was 5 to 50 µM; that for `N#Cc1ccc(NS(=O)(=O)c2c[nH]cc2-c2ccc(Cl)cc2)c(F)c1` [Cpd 218, 4-(4-chlorophenyl)-N-(4-cyano-2-fluoro-phenyl)-1H-pyrrole-3-sulfonamide] was 0.5 to 5 µM; that for `Cc1ccc(-c2c[nH]cc2S(=O)(=O)Nc2ccc(C#N)cc2F)cc1` [Cpd 219, N-(4-cyano-2-fluoro-phenyl)-4-(p-tolyl)-1H-pyrrole-3-sulfonamide] was 0.5 to 5 µM.

Take `COc1cccc(-c2c[nH]cc2S(=O)(=O)Nc2ccc(C#N)cc2F)c1` [Cpd 220, N-(4-cyano-2-fluoro-phenyl)-4-(3-methoxyphenyl)-1H-pyrrole-3-sulfonamide]: the 50% inhibitory concentration (IC50) lay in the range of 0.5 to 5 µM.

As for `Cc1cccc(-c2c[nH]cc2S(=O)(=O)Nc2ccc(C#N)cc2F)c1` [Cpd 221, N-(4-cyano-2-fluoro-phenyl)-4-(m-tolyl)-1H-pyrrole-3-sulfonamide], the IC50 is 0.5 to 5 µM.

`N#Cc1ccc(NS(=O)(=O)c2c[nH]cc2-c2ccccc2Cl)c(F)c1` [Cpd 222, 4-(2-chlorophenyl)-N-(4-cyano-2-fluoro-phenyl)-1H-pyrrole-3-sulfonamide]: the IC50 was 5 to 50 µM. The value for `COc1ccccc1-c1c[nH]cc1S(=O)(=O)Nc1ccc(C#N)cc1F` [Cpd 223, N-(4-cyano-2-fluoro-phenyl)-4-(2-methoxyphenyl)-1H-pyrrole-3-sulfonamide] was 5 to 50 µM; that for `COc1nccc(F)c1-c1cc(S(=O)(=O)Nc2cc(F)c(C(F)(F)F)cc2F)c[nH]1` [Cpd 224, N-[2,5-difluoro-4-(trifluoromethyl)phenyl]-5-(4-fluoro-2-methoxy-3-pyridyl)-1H-pyrrole-3-sulfonamide] was below 0.5 µM; that for `COc1nccc(F)c1-c1cc(S(=O)(=O)Nc2ccc(Cl)cc2F)c[nH]1` [Cpd 227, N-(4-chloro-2-fluoro-phenyl)-5-(4-fluoro-2-methoxy-3-pyridyl)-1H-pyrrole-3-sulfonamide] was 0.5 to 5 µM. The value for `N#Cc1ccc(NS(=O)(=O)c2c[nH]cc2-c2cccc(Cl)c2)c(F)c1` [Cpd 228, 4-(3-chlorophenyl)-N-(4-cyano-2-fluoro-phenyl)-1H-pyrrole-3-sulfonamide] was below 0.5 µM. In the case of `N#Cc1ccc(NS(=O)(=O)c2c[nH]cc2-c2ccccn2)c(F)c1` [Cpd 229, N-(4-cyano-2-fluoro-phenyl)-4-(2-pyridyl)-1H-pyrrole-3-sulfonamide] it was 0.5 to 5 µM; in that of `N#Cc1ccc(NS(=O)(=O)c2c[nH]cc2-c2cccc(F)c2)c(F)c1` [Cpd 230, N-(4-cyano-2-fluoro-phenyl)-4-(3-fluorophenyl)-1H-pyrrole-3-sulfonamide], below 0.5 µM; in that of `N#Cc1ccc(NS(=O)(=O)c2c[nH]cc2-c2ccccc2F)c(F)c1` [Cpd 231, N-(4-cyano-2-fluoro-phenyl)-4-(2-fluorophenyl)-1H-pyrrole-3-sulfonamide], 0.5 to 5 µM. Turning to `O=S(=O)(Nc1cc(F)c(OC(F)F)cc1F)c1c[nH]c(-c2ccccc2)c1` [Cpd 232, N-[4-(difluoromethoxy)-2,5-difluoro-phenyl]-5-phenyl-1H-pyrrole-3-sulfonamide], the IC50 was below 0.5 µM. The value for `O=S(=O)(Nc1ccc(OC(F)F)nc1)c1c[nH]c(-c2ccccc2)c1` [Cpd 233, N-[6-(difluoromethoxy)-3-pyridyl]-5-phenyl-1H-pyrrole-3-sulfonamide] was 0.5 to 5 µM.
